Test results published in patent US20090143285A1, “TARGET PROTEIN AND TARGET GENE FOR DRUG DISCOVERY AND SCREENING METHOD” (REVERSE PROTEOMICS RESEARCH INSTITUTE CO., LTD., priority 2005, published 2009).
Entries after “also recorded” stand apart in the source; their conditions may differ.

System: FLJXXXXX-derived proteins
Experiment: SEC/MS spin column interaction analysis of FLJXXXXX-derived proteins and various compounds (Tables 30-1 to 30-4)
Type: binding, human
Details: not given

| Compound | FLJ No of the derived protein with which the compound was judged to exhibit a concentration-dependent interaction |
| --- | --- |
| cyclosporin A | FLJ23466; also recorded: FLJ11211; also recorded: FLJ37909 |

Same assay, conditions: SEC spin column filtrate, spectral intensity increased with doses of compound and protein

| Compound | FLJ No of the derived protein with which the compound was judged to exhibit a concentration-dependent interaction |
| --- | --- |
| COc1ccc2c3c([nH]c2c1)C(C)=NCC3 [harmaline] | FLJ39553 |
| CCOc1ccc2ccccc2c1C(=O)N[C@@H]1C(=O)N2[C@@H]1SC(C)(C)[C@@H]2C(=O)O [nafcillin] | FLJ39553 |
| CCOC(=O)C1N=C(c2ccccc2F)c2cc(Cl)ccc2NC1=O (stereo not shown) [ethyl loflazepate] | FLJ35353 |
| O=C(O)CCCc1ccc(N(CCCl)CCCl)cc1 [chlorambucil] | FLJ23466 |
| COc1cc2nc(N3CCN(C(=O)C4COc5ccccc5O4)CC3)nc(N)c2cc1OC (stereo not shown) [doxazosin] | FLJ37909 |
| CCC(C)C1O[C@]2(C=C[C@@H]1C)C[C@@H]1CC(C/C=C(\C)[C@@H](OC3C[C@H](OC)[C@@H](OC4C[C@H](OC)[C@@H](O)[C@H](C)O4)[C@H](C)O3)[C@@H](C)/C=C/C=C3\COC4[C@H](O)C(C)=CC(C(=O)O1)[C@]34O)O2 (stereo partly shown) [avermectin B1A] | FLJ39553 |
| CN1C(=O)CC(=O)N(c2ccccc2)c2cc(Cl)ccc21 [clobazam] | FLJ35353 |
| c1ccc2c(c1)CCCC2C1=NCCN1 (stereo not shown) [tetrazoline] | FLJ36526 |
| CC/C(=C(\c1ccccc1)c1ccc(OCCN(C)C)cc1)c1ccccc1 [tamoxifen] | FLJ37909 |
| COc1cc2c(cc1OC)-c1cc3ccc(OC)c(OC)c3c[n+]1CC2 [palmatine] | FLJ39553 |
| C=C[C@H]1C[N@@]2CC[C@H]1C[C@@H]2[C@@H](O)c1ccnc2ccccc12 [cinchonine] | FLJ39553 |
| C[C@@H]1CC[C@@]2(NC1)O[C@H]1C[C@H]3[C@@H]4CC=C5C[C@@H](O)CC[C@]5(C)[C@H]4CC[C@]3(C)[C@H]1[C@@H]2C [solasodine] | FLJ35353 |
| celestine blue | FLJ39553 |
| spiramycin | FLJ21841 |
| CC(=O)c1ccc2c(c1)N(CCCN(C)C)c1ccccc1S2 [acetopromazine] | FLJ36526 |
| O=C1CNC(=O)N1 [hydantoin] | FLJ35914 |
| CCN1C(=O)NC(c2ccccc2)C1=O (stereo not shown) [ethotoin] | FLJ38531 |
| CSc1ccc2c(c1)N(CCC1CCCCN1C)c1ccccc1S2 (stereo not shown) [thioridazine] | FLJ37909 |
| COc1cccc(CCc2ccccc2OCC(CN(C)C)OC(=O)CCC(=O)O)c1 (stereo not shown) [sarpogrelate] | FLJ39553 |
| CC(C)C[C@H]1C(=O)N2CCC[C@H]2[C@]2(O)O[C@](NC(=O)[C@@H]3C=C4c5cccc6[nH]cc(c56)C[C@H]4N(C)C3)(C(C)C)C(=O)N12 [α-ergocryptine] | FLJ35353 |
| COc1ccc2[nH]c3c(c2c1)CCN=C3C [methoxy-6-harmalan] | FLJ39553 |
